Data taken from patent publication US20190119196A1, “COMPOUNDS FOR THE TREATMENT OF […]” (priority 2016, published 2019).
Where a name gives a salt, the structure may show the parent alone. Read-outs that look alike come from different tables or passages of the source.

Assays:
L6-myotubes [1] = assay: Glucose uptake in differentiated L6-myotubes (3H-2-deoxy-glucose); format: cell-based; conditions: read-out: Biological example 1: glucose uptake, % increase over the basal level
Experimental: (§1) L6-myoblasts were grown in Dulbecco's Modified Eagle's Medium (DMEM) containing 4,5 g/I glucose supplemented with 10% fetal bovine serum, 2 mM L-Glutamine, 50 U/ml penicillin, 50 μg/ml streptomycin and 10 mM HEPES. Cells were plated at 1×10^5 cells per ml in 24-well plates. After reaching 90% confluence the cells were grown in medium containing 2% FBS for 7 days where upon cells differentited into myotubes.
Differentiated L6-myotubes were serum-starved over night in medium containing 0.5% fatty-acid free BSA and stimulated with agonist, […], glucose free medium or PBS and another portion of agonist was added to glucose free medium. […] Cell lysate was mixed with scintillation buffer (Emulsifier Safe, Perkin Elmer and radioactivity detected in a β-counter (Tri-Carb 2800TR, Perkin Elmer). The numerical values in the table are given as % increase over the basal level.

L6-myotubes [2] = assay: Measurement of intracellular cAMP levels (alpha screen cAMP kit); format: cell-based; conditions: agonist final concentration 1×10^−5, 15 min; differentiated cells; 1 mM IBMX
Experimental: as §1
Differentiated cells were serum-starved over night and stimulated with agonist, final concentration 1×10−^5, for 15 min in stimulation buffer (HBSS supplemented with 1% BSA, 5 mM HEPES and 1 mM IBMX, pH 7,4) The medium was then aspirated and to end the reaction 100 μL of 95% EtOH was added to each well of a 24-well plate and cells were kept in −20° C. over night. The EtOH was let to evaporate and 500 μL of lysis buffer (1% BSA, 5 mM HEPES and 0,3% Tween-20, pH 7.4) was added to each well before put in −80° C. for 30 min and then kept in −20° C. Intracellular cAMP levels were detected using an alpha screen cAMP kit (6760635D from Perkin Elmer). The numerical values in the table are given as % increase over the basal level.

human β2-adrenoceptor = target: T1, human β2-adrenoceptor (Homo sapiens, UniProt P07550); assay: 3H-CGP 12177 whole cell β2 binding
T1 construct: expressed in transfected cells
T1 sequence (P07550 whole entry): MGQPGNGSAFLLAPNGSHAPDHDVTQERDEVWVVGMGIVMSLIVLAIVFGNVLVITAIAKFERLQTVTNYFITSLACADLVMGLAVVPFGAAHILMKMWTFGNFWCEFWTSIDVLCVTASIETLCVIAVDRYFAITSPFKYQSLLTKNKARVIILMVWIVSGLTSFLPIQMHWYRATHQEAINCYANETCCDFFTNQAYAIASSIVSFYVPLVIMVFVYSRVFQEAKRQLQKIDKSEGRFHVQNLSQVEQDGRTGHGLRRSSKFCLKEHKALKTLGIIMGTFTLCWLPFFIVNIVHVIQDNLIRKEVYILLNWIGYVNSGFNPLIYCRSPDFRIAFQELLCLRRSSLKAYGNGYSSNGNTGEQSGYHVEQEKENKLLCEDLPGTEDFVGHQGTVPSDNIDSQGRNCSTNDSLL
Experimental: ^3H-CGP 12177 Whole Cell β2 Binding
Chinese Hamster Ovary (CHO) cells stably expressing the human β2-adrenoceptor were grown in Dulbecco's modified Eagle's medium nutrient mix F12 (DMEM/F12) containing 10% fetal calf serum and 2 mM L-glutamine in a 37° C. humidified 5% CO2:95% air atmosphere. The cells were seeded (100 000 cells/mL) into white-sided, clear-bottomed 96-well isoplates and allowed to grow to confluence for the following day's experiment. Next day, the media was removed from each well of the isoplate. Aliquots of the test compounds (10^−2 M in DMSO) were diluted in DMEM/F12 containing 2 mM L-glutamine (serum-free media) to final concentration ranges of 10^−4 M to 10^−10 M and added to each well. The radioligand ^3H-CGP 12177 was diluted in the same medium (˜1 nM final well concentration) and added to each well. Propranolol and CGP 12177 (10 μM) were used to measure non-specific binding. The cells were incubated for 2 hours at 37° C. After incubation, the cells were washed twice by the addition and removal of 200 μL ice-cold phosphate-buffered saline (PBS). Cells were then lysed with Optiphase Supermix cocktail (100 μL/well) and a clear sealant top was applied to the plate. The plate was left overnight in the dark at room temperature, centrifuged (1000 rpm, 1 min) and measured in a MicroBeta2 Microplate Counter (Perkin Elmer) (10 minutes pre-incubation, 2 min counts/well).
All data points on each binding curve were measured in duplicates. Each 96-well plate also contained four determinations of total and non-specific binding. Non-specific binding was determined in the presence of CGP 12177 and propranolol (10 μM). […] All data points are measured in counts per minute (CPM) and converted into disintegrations per minute (DPM) by dividing the count rate (CPM) with the counting efficiency of the instruments detector (57%). The numerical values were obtained by using the GraphPad Prism 7 programme and are given as -log K (pKi) in the table.

[3] = agonist final concentration 1×10^−5, differentiated L6-myotubes, 50 nM 3H-2-deoxy-glucose
[4] = CHO cells stably expressing the human β2-adrenoceptor, ~1 nM 3H-CGP 12177, 2 hours at 37° C., read-out: Biological example 3: -log K (pKi), 3H-CGP 12177 whole cell β2 binding (converted)

SMILES | activation (L6-myotubes [1]; [3]) [%] | Biological example 2: intracellular cAMP levels, % increase over the basal level (L6-myotubes [2]) [%] | Ki (human β2-adrenoceptor; [4]) [µM] | activation (L6-myotubes [1]) [%] | Ki (human β2-adrenoceptor) [µM]
CCCC(C)NC(C)C(O)c1ccc(O)cc1 (mixture of isomers) [Example 13, 4-(1-Hydroxy-2-(pentan-2-ylamino)propyl)phenol acetate] | 42 | −1 | 15.8 | – | –
CCCC(C)NCC(O)c1cccc(O)c1 (mixture of isomers) [Example 15, 3-(1-Hydroxy-2-(pentan-2-ylamino)ethyl)phenol] | 31 | 20 | 0.794 | – | –
CCCC(C)NCC(O)c1ccc(O)c(Cl)c1 (mixture of isomers) [Example 19, 2-Chloro-4-(1-hydroxy-2-(pentan-2-ylamino)ethyl)phenol] | 30 | −52 | 0.501 | – | –
CCCC(C)NCC(O)c1cc(Cl)c(O)c(Cl)c1 (mixture of isomers) [Example 27, 2,6-Dichloro-4-(1-hydroxy-2-(pentan-2-ylamino)ethyl)phenol] | 6 | 86 | 1.26 | – | –
CCCC(C)NCC(O)c1cc(Cl)c(N)c(Cl)c1 (mixture of isomers) [Example 28, 1-(4-Amino-3,5-dichlorophenyl)-2-(pentan-2-ylamino)ethan-1-ol trifluoroacetate] | – | 2 | – | 39 | 0.398
CCCC(C)NCC(O)c1cc(Cl)c(N)c(C(F)(F)F)c1 (mixture of isomers) [Example 31, 1-(4-amino-3-chloro-5-(trifluoromethyl)phenyl)-2-(pentan-2-ylamino)ethan-1-ol] | 36 | 439 | – | – | 0.0316
CCCC(C)NCC(O)c1ccc(Cl)c(O)c1 (mixture of isomers) [Example 33, 2-Chloro-5-(1-hydroxy-2-(pentan-2-ylamino)ethyl)phenol] | 55 | 1191 | 1 | – | –
CCCCNCC(O)c1ccc(O)cc1 (stereo not shown) [Example 1, 4-(2-(Butylamino)-1-hydroxyethyl)phenol] | 50 | 1 | 25.1 | – | –
CCCCNCC(O)c1cccc(Cl)c1 (stereo not shown) [Example 2, 2-(Butylamino)-1-(3-chlorophenyl)ethan-1-ol] | 27 | 3 | 6.31 | – | –
Oc1ccc(C(O)CNCC2CC2)cc1 (stereo not shown) [Example 3, 4-(2-((Cyclopropylmethyl)amino)-1-hydroxyethyl)phenol] | 86 | 18 | 25.1 | – | –
CC(C)(C)NCC(O)c1ccc(O)cc1 (stereo not shown) [Example 4, 4-(2-(tert-Butylamino)-1-hydroxyethyl)phenol] | – | 40 | 1 | 62 | –
CCC(C)NCC(O)c1ccc(O)cc1 (stereo not shown) [Example 5, 4-(2-(sec-Butylamino)-1-hydroxyethyl)phenol] | 39 | 18 | 5.01 | – | –
Oc1ccc(C(O)CNCC2CCCCC2)cc1 (stereo not shown) [Example 6, 4-(2-((Cyclohexylmethyl)amino)-1-hydroxyethyl)phenol] | 23 | 3 | 10 | – | –
Oc1ccc(C(O)CNC2CCCC2)cc1 (stereo not shown) [Example 7, 4-(2-(cyclopentylamino)-1-hydroxyethyl)phenol acetate] | 23 | 1 | 5.01 | – | –
CCCC(C)NCC(O)c1ccc(O)cc1 (stereo not shown) [Example 8, 4-(1-Hydroxy-2-(pentan-2-ylamino)ethyl)phenol acetate] | – | 15 | 20 | 12 | –
Oc1ccc(C(O)CNC23CC4CC(CC(C4)C2)C3)cc1 (stereo not shown) [Example 9, 4-(2-(adamantan-1-ylamino)-1-hydroxyethyl)phenol hemisulfate] | 18 | 4 | 50.1 | – | –
OC(CNCC1CCCCC1)c1ccccc1 (stereo not shown) [Example 10, 2-((cyclohexylmethyl)amino)-1-phenylethan-1-ol] | 39 | 5 | 25.1 | – | –
CCCCNC[C@H](O)c1ccc(O)cc1 [Example 11, (R)-4-(2-(Butylamino)-1-hydroxyethyl)phenol hemisulfate] | 50 | 10 | 39.8 | – | –
CCCCNC(C)C(O)c1ccc(O)cc1 (stereo not shown) [Example 12, 4-(2-(Butylamino)-1-hydroxypropyl)phenol acetate] | 40 | 190 | 7.94 | – | –
CCCCNCC(O)c1cccc(O)c1 (stereo not shown) [Example 14, 3-(2-(Butylamino)-1-hydroxyethyl)phenol] | 17 | 20 | 15.8 | – | –
Oc1ccc(C(O)CNCCC2CCCCC2)cc1 (stereo not shown) [Example 16, 4-(2-((2-Cyclohexylethyl)amino)-1-hydroxyethyl)phenol acetate] | 23 | −56 | 5.01 | – | –
CCCCCCNCC(O)c1ccc(O)cc1 (stereo not shown) [Example 17, 4-(2-(Hexylamino)-1-hydroxyethyl)phenol acetate] | 26 | 70 | 6.31 | – | –
CCCCCCCCNCC(O)c1ccc(O)cc1 (stereo not shown) [Example 18, 4-(1-Hydroxy-2-(octylamino)ethyl)phenol acetate] | 26 | −23 | 6.31 | – | –
Oc1ccc(C(O)CNCCCC2CC2)cc1 (stereo not shown) [Example 23, 4-(2-((3-Cyclopropylpropyl)amino)-1-hydroxyethyl)phenol acetate] | 28 | – | 7.94 | – | –
Oc1ccc(C(O)CNCCCC(F)(F)F)cc1 (stereo not shown) [Example 24, 4-(1-Hydroxy-2-((4,4,4-trifluorobutyl)amino)ethyl)phenol acetate] | 22 | – | 10 | – | –
